Measurements published in ChEMBL document CHEMBL3885881, “DrugMatrix”.

Species: Rattus norvegicus
Assay: DrugMatrix - Regimen: Daily Repeat
Format: toxicity, organism-based, Sprague-Dawley
Parameters: regimen Daily Repeat, gender Male, age 6-8 weeks
Conditions: in vivo, po, route oral GAVAGE, vehicle .5 % CMC; for ABSOLUTE BASOPHIL / ABSOLUTE EOSINOPHIL / ABSOLUTE LYMPHOCYTE / ABSOLUTE MONOCYTE / ABSOLUTE SEGMENTED NEUTROPHIL / BASOPHIL / EOSINOPHIL / ERYTHROCYTE COUNT / HEMATOCRIT / HEMOGLOBIN / LEUKOCYTE COUNT / LYMPHOCYTE / MEAN CORPUSCULAR HEMOGLOBIN / MEAN CORPUSCULAR HEMOGLOBIN CONCENTRATION / MEAN CORPUSCULAR VOLUME / MONOCYTE / NEUTROPHIL / NUCLEATED RED BLOOD CELLS / PLATELET COUNT: tissue Blood; for ALANINE AMINOTRANSFERASE / ALBUMIN / ASPARTATE AMINOTRANSFERASE / BLOOD UREA NITROGEN / CARBON DIOXIDE / CHLORIDE / CHOLESTEROL / CREATINE PHOSPHOKINASE / CREATININE / GLUCOSE / LACTATE DEHYDROGENASE / LIPASE / POTASSIUM / SODIUM / TOTAL BILIRUBIN / TOTAL PROTEIN / URIC ACID: tissue Plasma
[1] = 47 mg/kg, 72 h, dose level Low, time 3 day
[2] = 47 mg/kg, 120 h, dose level Low, time 5 day
[3] = 500 mg/kg, 72 h, dose level High, time 3 day
[4] = 500 mg/kg, 120 h, dose level High, time 5 day

For `OCCOCCN1CCN(C2=Nc3ccccc3Sc3ccccc32)CC1` [QUETIAPINE], the “ABSOLUTE BASOPHIL” value [1] was 0 CELLS/uL, the “ABSOLUTE EOSINOPHIL” value [1] was 0 CELLS/uL and the “ABSOLUTE LYMPHOCYTE” value [1] was 7521.33 CELLS/uL. The “ABSOLUTE MONOCYTE” value [1] was 22.33 CELLS/uL, the “ABSOLUTE SEGMENTED NEUTROPHIL” value [1] was 789.67 CELLS/uL and the BASOPHIL [1] was 0%. For the same compound, the EOSINOPHIL [1] was 0%, the “ERYTHROCYTE COUNT” value [1] was 5.57 x10E6/uL and the HEMATOCRIT [1] was 34.3%. The HEMOGLOBIN [1] was 13.87 G/DL, the “LEUKOCYTE COUNT” value [1] was 8.33 x10E3/uL and the LYMPHOCYTE [1] was 90.33%. For the same compound, the “MEAN CORPUSCULAR HEMOGLOBIN” value [1] was 24.93 pg, the “MEAN CORPUSCULAR HEMOGLOBIN CONCENTRATION” value [1] was 40.43 G/DL and the “MEAN CORPUSCULAR VOLUME” value [1] was 61.7 fL. The MONOCYTE [1] was 0.33%, the NEUTROPHIL [1] was 9.33% and the “NUCLEATED RED BLOOD CELLS” value [1] was 0.33 /100WBC. The “PLATELET COUNT” value [1] was 1115.67 x10E3/uL, the “ALANINE AMINOTRANSFERASE” value [1] was 48.33 u/L and the ALBUMIN [1] was 4.63 G/DL. The “ASPARTATE AMINOTRANSFERASE” value [1] was 64.67 u/L, the “BLOOD UREA NITROGEN” value [1] was 15.33 mg/dL and the “CARBON DIOXIDE” value [1] was 31 mmol/L. The CHLORIDE [1] was 101 MEQ/L, the CHOLESTEROL [1] was 78.33 mg/dL and the “CREATINE PHOSPHOKINASE” value [1] was 126.33 u/L. The CREATININE [1] was 0.17 mg/dL, the GLUCOSE [1] was 143.33 mg/dL and the “LACTATE DEHYDROGENASE” value [1] was 116.33 u/L. The LIPASE [1] was 12 u/L, the POTASSIUM [1] was 6.23 MEQ/L and the SODIUM [1] was 148.9 MEQ/L. For the same compound, the “TOTAL BILIRUBIN” value [1] was 0.2 mg/dL, the “TOTAL PROTEIN” value [1] was 6.03 G/DL and the “URIC ACID” value [1] was 1.03 mg/dL. The “ABSOLUTE BASOPHIL” value [2] was 0 CELLS/uL, the “ABSOLUTE EOSINOPHIL” value [2] was 0 CELLS/uL and the “ABSOLUTE LYMPHOCYTE” value [2] was 13853.67 CELLS/uL. The “ABSOLUTE MONOCYTE” value [2] was 281 CELLS/uL, the “ABSOLUTE SEGMENTED NEUTROPHIL” value [2] was 1032 CELLS/uL and the BASOPHIL [2] was 0%. The EOSINOPHIL [2] was 0%, the “ERYTHROCYTE COUNT” value [2] was 6.08 x10E6/uL and the HEMATOCRIT [2] was 38.03%. For the same compound, the HEMOGLOBIN [2] was 15.07 G/DL, the “LEUKOCYTE COUNT” value [2] was 15.17 x10E3/uL and the LYMPHOCYTE [2] was 91.33%. The “MEAN CORPUSCULAR HEMOGLOBIN” value [2] was 24.83 pg, the “MEAN CORPUSCULAR HEMOGLOBIN CONCENTRATION” value [2] was 39.6 G/DL and the “MEAN CORPUSCULAR VOLUME” value [2] was 62.6 fL. For the same compound, the MONOCYTE [2] was 2%, the NEUTROPHIL [2] was 6.67% and the “NUCLEATED RED BLOOD CELLS” value [2] was 0 /100WBC. For the same compound, the “PLATELET COUNT” value [2] was 1335.33 x10E3/uL, the “ALANINE AMINOTRANSFERASE” value [2] was 39.33 u/L and the ALBUMIN [2] was 4.63 G/DL. For the same compound, the “ASPARTATE AMINOTRANSFERASE” value [2] was 90.67 u/L, the “BLOOD UREA NITROGEN” value [2] was 20 mg/dL and the “CARBON DIOXIDE” value [2] was 25 mmol/L. For the same compound, the CHLORIDE [2] was 96.67 MEQ/L, the CHOLESTEROL [2] was 61.33 mg/dL and the “CREATINE PHOSPHOKINASE” value [2] was 403.67 u/L. The CREATININE [2] was 0.22 mg/dL, the GLUCOSE [2] was 148 mg/dL and the “LACTATE DEHYDROGENASE” value [2] was 287 u/L. The LIPASE [2] was 9.33 u/L, the POTASSIUM [2] was 7.45 MEQ/L and the SODIUM [2] was 142.07 MEQ/L. For the same compound, the “TOTAL BILIRUBIN” value [2] was 0.13 mg/dL, the “TOTAL PROTEIN” value [2] was 6.67 G/DL and the “URIC ACID” value [2] was 2.17 mg/dL. The “ABSOLUTE BASOPHIL” value [3] was 0 CELLS/uL, the “ABSOLUTE EOSINOPHIL” value [3] was 0 CELLS/uL and the “ABSOLUTE LYMPHOCYTE” value [3] was 9655.67 CELLS/uL. The “ABSOLUTE MONOCYTE” value [3] was 233.67 CELLS/uL, the “ABSOLUTE SEGMENTED NEUTROPHIL” value [3] was 577.33 CELLS/uL and the BASOPHIL [3] was 0%. For the same compound, the EOSINOPHIL [3] was 0%, the “ERYTHROCYTE COUNT” value [3] was 5.61 x10E6/uL and the HEMATOCRIT [3] was 34.93%. For the same compound, the HEMOGLOBIN [3] was 14.17 G/DL, the “LEUKOCYTE COUNT” value [3] was 10.47 x10E3/uL and the LYMPHOCYTE [3] was 92.67%. The “MEAN CORPUSCULAR HEMOGLOBIN” value [3] was 25.27 pg, the “MEAN CORPUSCULAR HEMOGLOBIN CONCENTRATION” value [3] was 40.53 G/DL and the “MEAN CORPUSCULAR VOLUME” value [3] was 62.27 fL. For the same compound, the MONOCYTE [3] was 2%, the NEUTROPHIL [3] was 5.33% and the “NUCLEATED RED BLOOD CELLS” value [3] was 0 /100WBC. For the same compound, the “PLATELET COUNT” value [3] was 1122.67 x10E3/uL, the “ALANINE AMINOTRANSFERASE” value [3] was 50.33 u/L and the ALBUMIN [3] was 4.3 G/DL. The “ASPARTATE AMINOTRANSFERASE” value [3] was 75 u/L, the “BLOOD UREA NITROGEN” value [3] was 16.67 mg/dL and the “CARBON DIOXIDE” value [3] was 26.33 mmol/L. For the same compound, the CHOLESTEROL [3] was 46.67 mg/dL, the “CREATINE PHOSPHOKINASE” value [3] was 448 u/L and the CREATININE [3] was 0.21 mg/dL. For the same compound, the GLUCOSE [3] was 138 mg/dL, the “LACTATE DEHYDROGENASE” value [3] was 232.33 u/L and the LIPASE [3] was 8 u/L. The POTASSIUM [3] was 6.14 MEQ/L, the SODIUM [3] was 143.73 MEQ/L and the “TOTAL BILIRUBIN” value [3] was 0.23 mg/dL. For the same compound, the “TOTAL PROTEIN” value [3] was 5.57 G/DL, the “URIC ACID” value [3] was 1.33 mg/dL and the “ABSOLUTE BASOPHIL” value [4] was 0 CELLS/uL. The “ABSOLUTE EOSINOPHIL” value [4] was 0 CELLS/uL, the “ABSOLUTE LYMPHOCYTE” value [4] was 15536 CELLS/uL and the “ABSOLUTE MONOCYTE” value [4] was 318.67 CELLS/uL. For the same compound, the “ABSOLUTE SEGMENTED NEUTROPHIL” value [4] was 1612 CELLS/uL, the BASOPHIL [4] was 0% and the EOSINOPHIL [4] was 0%. The “ERYTHROCYTE COUNT” value [4] was 6.23 x10E6/uL, the HEMATOCRIT [4] was 37.83% and the HEMOGLOBIN [4] was 15.17 G/DL. The “LEUKOCYTE COUNT” value [4] was 17.47 x10E3/uL, the LYMPHOCYTE [4] was 89% and the “MEAN CORPUSCULAR HEMOGLOBIN” value [4] was 24.33 pg. For the same compound, the “MEAN CORPUSCULAR HEMOGLOBIN CONCENTRATION” value [4] was 40.1 G/DL, the “MEAN CORPUSCULAR VOLUME” value [4] was 60.67 fL and the MONOCYTE [4] was 1.67%. For the same compound, the NEUTROPHIL [4] was 9.33%, the “NUCLEATED RED BLOOD CELLS” value [4] was 0 /100WBC and the “PLATELET COUNT” value [4] was 1152.33 x10E3/uL. The “ALANINE AMINOTRANSFERASE” value [4] was 50.33 u/L, the ALBUMIN [4] was 4.37 G/DL and the “ASPARTATE AMINOTRANSFERASE” value [4] was 71 u/L. The “BLOOD UREA NITROGEN” value [4] was 20 mg/dL, the “CARBON DIOXIDE” value [4] was 25 mmol/L and the CHLORIDE [4] was 103 MEQ/L. The CHOLESTEROL [4] was 56.67 mg/dL, the “CREATINE PHOSPHOKINASE” value [4] was 184.33 u/L and the CREATININE [4] was 0.29 mg/dL. The GLUCOSE [4] was 154 mg/dL, the “LACTATE DEHYDROGENASE” value [4] was 150.67 u/L and the LIPASE [4] was 8.67 u/L. For the same compound, the POTASSIUM [4] was 6.89 MEQ/L, the SODIUM [4] was 145 MEQ/L and the “TOTAL BILIRUBIN” value [4] was 0.2 mg/dL. The “TOTAL PROTEIN” value [4] was 6.13 G/DL and the “URIC ACID” value [4] was 2.13 mg/dL.
